Data taken from ChEMBL document CHEMBL4627374, “Psathyrins: Antibacterial Diterpenoids from Psathyrella candolleana” (2020).
≈ marks a conversion by molar mass, not a printed value.

Columns and labels:
Assay type in all cases: functional
Staphylococcus aureus = assay: Antibacterial activity against Staphylococcus aureus subsp. aureus ATCC 29213 incubated for 24 hrs by photometry; settings: ATCC 29213, 24 h
[1] = tested on: Salmonella enterica subsp. enterica; assay: Antibacterial activity against Salmonella enterica subsp. enterica ATCC 14028 incubated for 24 hrs by photometry; settings: ATCC 14028, 24 h
Pseudomonas aeruginosa = assay: Antibacterial activity against Pseudomonas aeruginosa ATCC 27853 incubated for 24 hrs by photometry; settings: ATCC 27853, 24 h

Compound	MIC50 (Staphylococcus aureus) [µg/mL]	MIC50 [1] [µg/mL]	MIC50 (Pseudomonas aeruginosa) [µg/mL]
CC1(C)S[C@@H]2[C@H](NC(=O)Cc3ccccc3)C(=O)N2C1C(=O)[O-].[Na+] (some centres undefined)	0.81	1.32	
CC(C)[C@H]1CC(=O)[C@]23[C@@H]4C=C(CO)C[C@@H](O)[C@@H]4[C@@]2(C)CC[C@]13C	14.3 (≈ 44.9 µM)	77.9 (≈ 245 µM)	> 128
CC(C)(O/N=C(\C(=O)N[C@@H]1C(=O)N2C(C(=O)[O-])=C(C[n+]3ccccc3)CS[C@H]12)c1csc(N)n1)C(=O)O [CEFTAZIDIME]			0.08 (≈ 0.146 µM)
C[C@H](CO)[C@H]1CC(=O)C23[C@@H]4C=C(CO)CC[C@@H]4[C@@]2(C)CC[C@]13C (some centres undefined)	22.7 (≈ 71.3 µM)	102 (≈ 319 µM)	> 128
